Reference: ChEMBL document CHEMBL4602625, “Synthesis, biological evaluation and SAR studies of ursolic acid 3β-ester derivatives as novel CETP inhibitors” (Bioorg Med Chem Lett, 2020)

Assays:
[1] = target: T1, Cholesteryl ester transfer protein (Homo sapiens) (UniProt P11597); assay: Inhibition of human CETP at 10 uM relative to control
T1 sequence (whole entry): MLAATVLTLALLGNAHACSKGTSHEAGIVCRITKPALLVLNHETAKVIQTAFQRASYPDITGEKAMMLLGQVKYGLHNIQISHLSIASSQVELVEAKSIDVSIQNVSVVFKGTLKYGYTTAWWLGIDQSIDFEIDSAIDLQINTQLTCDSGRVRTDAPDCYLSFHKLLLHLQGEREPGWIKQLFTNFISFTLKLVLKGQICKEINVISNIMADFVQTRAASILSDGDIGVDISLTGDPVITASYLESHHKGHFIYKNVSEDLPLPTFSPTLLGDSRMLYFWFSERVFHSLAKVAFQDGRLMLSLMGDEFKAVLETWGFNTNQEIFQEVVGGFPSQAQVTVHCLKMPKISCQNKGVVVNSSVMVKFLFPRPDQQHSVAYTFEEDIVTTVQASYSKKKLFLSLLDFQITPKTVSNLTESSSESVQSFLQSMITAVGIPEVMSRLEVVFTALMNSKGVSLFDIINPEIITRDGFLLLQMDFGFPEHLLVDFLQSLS

[2] = target: T2, Cholesteryl ester transfer protein (Homo sapiens, UniProt P11597); assay: Inhibition of human CETP
T2 sequence (P11597 whole entry): T1 sequence (whole entry)

Work on C[C@H]1[C@H](C)CC[C@]2(C(=O)O)CC[C@]3(C)C(=CC[C@@H]4[C@@]5(C)CC[C@H](OC(=O)c6cccc(C(=O)O)c6)C(C)(C)[C@@H]5CC[C@]43C)[C@H]12 yielded an inhibition [1] of 61.8% and an IC50 [2] of 3.3 µM.
Work on C[C@H]1[C@H](C)CC[C@]2(C(=O)O)CC[C@]3(C)C(=CC[C@@H]4[C@@]5(C)CC[C@H](OC(=O)c6ccccc6)C(C)(C)[C@@H]5CC[C@]43C)[C@H]12 yielded an inhibition [1] of 22.7%.
Work on C[C@H]1[C@H](C)CC[C@]2(C(=O)O)CC[C@]3(C)C(=CC[C@@H]4[C@@]5(C)CC[C@H](OC(=O)c6ccccc6C(=O)O)C(C)(C)[C@@H]5CC[C@]43C)[C@H]12 yielded an inhibition [1] of 47.9% and an IC50 [2] of 5.5 µM.
For C[C@H]1[C@H](C)CC[C@]2(C(=O)O)CC[C@]3(C)C(=CC[C@@H]4[C@@]5(C)CC[C@H](O)C(C)(C)[C@@H]5CC[C@]43C)[C@H]12 [URSOLIC ACID], the IC50 [2] was > 50 µM.
Work on C[C@H]1[C@H](C)CC[C@]2(C(=O)O)CC[C@]3(C)C(=CC[C@@H]4[C@@]5(C)CC[C@H](OC(=O)CC6(CC(=O)O)CCCCC6)C(C)(C)[C@@H]5CC[C@]43C)[C@H]12 yielded an inhibition [1] of 1.5%.
Compound C[C@H]1[C@H](C)CC[C@]2(C(=O)O)CC[C@]3(C)C(=CC[C@@H]4[C@@]5(C)CC[C@H](OC(=O)c6ccc(C(=O)O)cc6)C(C)(C)[C@@H]5CC[C@]43C)[C@H]12 has an inhibition [1] of 24.5%.
Compound C[C@H]1[C@H](C)CC[C@]2(C(=O)O)CC[C@]3(C)C(=CC[C@@H]4[C@@]5(C)CC[C@H](OC(=O)CCCCC(=O)O)C(C)(C)[C@@H]5CC[C@]43C)[C@H]12 has an inhibition [1] of 23.3%.
Compound COc1cc(F)c(C(C)C)cc1-c1ccc(C(F)(F)F)cc1CN1C(=O)O[C@H](c2cc(C(F)(F)F)cc(C(F)(F)F)c2)[C@@H]1C has an inhibition [1] of 88.4%.
C[C@H]1[C@H](C)CC[C@]2(C(=O)O)CC[C@]3(C)C(=CC[C@@H]4[C@@]5(C)CC[C@H](OC(=O)CC6(CC(=O)O)CCCC6)C(C)(C)[C@@H]5CC[C@]43C)[C@H]12 gave an inhibition [1] of 0%.
C[C@H]1[C@H](C)CC[C@]2(C(=O)O)CC[C@]3(C)C(=CC[C@@H]4[C@@]5(C)CC[C@H](OC(=O)CCCC(=O)O)C(C)(C)[C@@H]5CC[C@]43C)[C@H]12 showed an inhibition [1] of 55.1% and an IC50 [2] of 3.2 µM.
C[C@H]1[C@H](C)CC[C@]2(C(=O)O)CC[C@]3(C)C(=CC[C@@H]4[C@@]5(C)CC[C@H](OC(=O)C6C(C(=O)O)C6(C)C)C(C)(C)[C@@H]5CC[C@]43C)[C@H]12 (some centres not stated) showed an inhibition [1] of 9%.
C[C@H]1[C@H](C)CC[C@]2(C(=O)O)CC[C@]3(C)C(=CC[C@@H]4[C@@]5(C)CC[C@H](OC(=O)C6CC6C(=O)O)C(C)(C)[C@@H]5CC[C@]43C)[C@H]12 (some centres not stated) gave an inhibition [1] of 53.2% and an IC50 [2] of 2.4 µM.
With CC(CC(=O)O)CC(=O)O[C@H]1CC[C@]2(C)[C@H]3CC=C4[C@@H]5[C@@H](C)[C@H](C)CC[C@]5(C(=O)O)CC[C@@]4(C)[C@]3(C)CC[C@H]2C1(C)C (some centres not stated) the inhibition [1] was 1.1%.
With C[C@H]1[C@H](C)CC[C@]2(C(=O)O)CC[C@]3(C)C(=CC[C@@H]4[C@@]5(C)CC[C@H](OC(=O)CCCCCC(=O)O)C(C)(C)[C@@H]5CC[C@]43C)[C@H]12 the inhibition [1] was 11.1%.
For C[C@H]1[C@H](C)CC[C@]2(C(=O)O)CC[C@]3(C)C(=CC[C@@H]4[C@@]5(C)CC[C@H](OC(=O)c6cccnc6)C(C)(C)[C@@H]5CC[C@]43C)[C@H]12, the inhibition [1] was 11.2%.
C[C@H]1[C@H](C)CC[C@]2(C(=O)O)CC[C@]3(C)C(=CC[C@@H]4[C@@]5(C)CC[C@H](OC(=O)CCC(=O)O)C(C)(C)[C@@H]5CC[C@]43C)[C@H]12 gave an inhibition [1] of 42.8% and an IC50 [2] of 10.9 µM.
Compound C[C@H]1[C@H](C)CC[C@]2(C(=O)O)CC[C@]3(C)C(=CC[C@@H]4[C@@]5(C)CC[C@H](OC(=O)CC(C)(C)CC(=O)O)C(C)(C)[C@@H]5CC[C@]43C)[C@H]12 has an inhibition [1] of 0%.
